BindingDB's records for doi:10.1021/jm000940u (Aventis Pharma, 2000)

Columns and labels:
Prothrombin = Prothrombin (Homo sapiens, UniProt P00734); experiment: Enzyme Assay and Determination of the Inhibition Constants.; conditions: pH 7.5; 22 °C
Serine protease 1 = biological target: T1, Serine protease 1 (Bos taurus, UniProt P00760); experiment: as above; conditions: pH 7.5; 22 °C
T1 sequence (P00760 whole entry): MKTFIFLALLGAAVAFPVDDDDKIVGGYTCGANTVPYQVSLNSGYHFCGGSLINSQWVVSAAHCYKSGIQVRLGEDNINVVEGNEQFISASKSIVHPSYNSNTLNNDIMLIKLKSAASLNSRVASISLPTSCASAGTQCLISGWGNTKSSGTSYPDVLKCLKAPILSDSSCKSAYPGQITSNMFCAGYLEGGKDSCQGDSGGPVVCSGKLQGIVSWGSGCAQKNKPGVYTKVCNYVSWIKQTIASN

Ki (Prothrombin) | Ki (Serine protease 1) | Structure (SMILES)
> 4 µM | > 2.9 µM | O=C1[C@@H](NS(=O)(=O)c2cc3ncccc3s2)CCN1Cc1cc2ccncc2[nH]1 [N-[(3S)-1-(4,7-diazabicyclo[4.3.0]nona-2,4,8,10-tetraen-8-ylmethyl)-2-oxo-pyrrolidin-3-yl]-7-thia-2-azabicyclo[4.3.0]nona-2,4,8,10-tetraene-8-sulfonamide]
> 4 µM | > 2.9 µM | Nc1nccc2ccc(CN3CC[C@H](NS(=O)(=O)c4cc5ncccc5s4)C3=O)cc12 [N-[(3S)-1-[(1-aminoisoquinolin-7-yl)methyl]-2-oxopyrrolidin-3-yl]thieno[3,2-b]pyridine-2-sulfonamide]
> 4 µM | – | N=C(N)c1ccc(O)c(CN2CC[C@H](NS(=O)(=O)c3cc4ncccc4s3)C2=O)c1
